Experimental data taken from patent US20230338250A1, “Compositions Comprising One or More (Bio)-Alkanediols with Active Ingredients” (Symrise AG, priority 2020, published 2023).

assay: Example 2 solubility of alkanediols in water (maximum water solubility, visual observation); assay type: physicochemical; conditions: assessed at ambient temperature after 24 h storage at 5° C.
Source text: The water solubility of a substance is the saturation mass concentration of the substance in water at a given temperature. The determination of the solubility in water relates to essentially pure substances which are stable in water and not volatile.
For the determination of the maximum water solubility of an alkanediol, water and different concentrations of the respective alkanediol were blended by stirring. […] The determination of whether the alkanediol has dissolved in water is based entirely on visual observation.

Going from CCCCCC(O)CO (stereo not drawn) [1,2-heptanediol] to CCCCCCC(O)CO (stereo not drawn) [Hydrolite® 8, 1,2-octanediol], the “Maximum solubility in water (% by weight)” value falls from 2.5 % by weight to 0.5 % by weight.

Going from CCCCCCCC(O)CO (stereo not drawn) [1,2-nonanediol] to CCCCC(O)CO (stereo not drawn) [Hydrolite® 6, 1,2-hexanediol], the “Maximum solubility in water (% by weight)” value rises from 0.1 % by weight to 50 % by weight.

Compared with CCCCC(O)C(C)O (stereo not drawn) [2,3-heptanediol], CCCCCC(O)C(C)O (stereo not drawn) [2,3-octanediol] is lower in “Maximum solubility in water (% by weight)” value: 3.6 % by weight for the first, 1.5 % by weight for the second.

Compared with CCCCCCC(O)C(C)O (stereo not drawn) [2,3-nonanediol], CCCC(O)CO (stereo not drawn) [Hydrolite® 5 green, 1,2-pentanediol] is higher in “Maximum solubility in water (% by weight)” value: 0.3 % by weight for the first, 50 % by weight for the second.

assay: Example 1.2 solubility improvement for Hydrocortisone with 1,2-alkanediols: visual appearance; assay type: physicochemical; conditions: 0.2 % Hydrocortisone; 1.0 % 1,2-alkanediol; after 3 days 23° C.
Method: Production method: A premix B was prepared by mixing solvent, solubilizer and diol. Hydrocortisone was added. The mixture was heated to 70° C. to solve the active component while stirring with a magnetic stirrer. The mixture was stirred for further 5 minutes at 70° C. Water was added and the mixture was cooled while stirring (10 min).
The visual appearance of the sample solutions was evaluated according to the following scale:
The images of the sample solutions A (containing 1,2-pentanediol), B (containing 1,2-hexanediol), C (containing 1,2-heptanediol) and D (containing 1,2-octanediol) are shown in FIG. 3.

With CCCCCC(O)CO (stereo not drawn) [1,2-heptanediol] the “crystallization/sedimentation, transparency, turbidity compared between samples” value was “better solubility improving properties”.
